Results reported in US9376391B2, “Difluoromethyl-nicotinic-tetrahydronaphthyl carboxamides as fungicides” (BAYER CROPSCIENCE AKTIENGESELLSCHAFT, priority 2012, dated 2016).

Legend:
Alternaria brassicae = assay: In vivo preventive test on Alternaria brassicae (leaf spot on radish); conditions: dose 500 ppm, spray, graded 6 days after contamination vs control plants
Outline: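 Radish cv. Pernod Clair at cotyledon stage (grown 17 °C) sprayed with compound in acetone/tween/DMSO/water, then inoculated 24 h later with A. brassicae spores (50 000 spores per ml). Incubation 20 °C, 100% RH; % efficacy graded 6 days post-inoculation versus solvent-treated controls.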

Phakopsora pachyrhizi = assay: Phakopsora test (soybeans)/preventive; assay type: in vivo; conditions: 100 ppm of active ingredient, evaluated 7 days after inoculation
Protocol: Phakopsora Test (Soybeans)/Preventive
(§1) To produce a suitable preparation of active compound, 1 part by weight of active compound is mixed with the stated amounts of solvent and emulsifier, and the concentrate is diluted with water to the desired concentration.
(§2) To test for preventive activity, young plants are sprayed with the preparation of active compound at the stated rate of application. After the spray coating has dried on, the plants are inoculated with an aqueous spore suspension of the causal agent of soybean rust (Phakopsora pachyrhizi) and stay for 24 h without light in an incubation cabinet at approximately 24° C. and a relative atmospheric humidity of 95%.
The plants remain in the incubation cabinet at approximately 24° C. and a relative atmospheric humidity of approximately 80% and a day/night interval of 12 h.
The test is evaluated 7 days after the inoculation. 0% means an efficacy which corresponds to that of the untreated control, while an efficacy of 100% means that no disease is observed.

Venturia inaequalis = assay: Venturia test (apples)/preventive; assay type: in vivo; conditions: 100 ppm of active ingredient, evaluated 10 days after inoculation
Protocol: Venturia Test (Apples)/Preventive
as §1
as §2, with “conidia” for “spore”, “apple scab (Venturia inaequalis)” for “soybean rust (Phakopsora pachyrhizi)”, “then remain” for “stay”, “1 day” for “24 h without light”, “20°” for “24°”, “100%.” for “95%.”
The plants are then placed in a greenhouse at approximately 21° C. and a relative atmospheric humidity of approximately 90%.
The test is evaluated 10 days after the inoculation. 0% means an efficacy which corresponds to that of the untreated control, while an efficacy of 100% means that no disease is observed.

Pyrenophora teres = assay: In vivo preventive test on Pyrenophora teres (net blotch on barley)
Protocol: In Vivo Preventive Test on Pyrenophora teres (Net Blotch on Barley)
The active ingredients tested are prepared by homogenization in a mixture of acetone/tween/DMSO, and then diluted with water to obtain the desired active material concentration.
Barley plants (“Plaisant” variety), sown in starter cups on a 50/50 peat soil-pozzolana substrate and grown at 22° C., are treated at the 1-leaf stage (10 cm height) by spraying with the active ingredient prepared as described above. Plants, used as controls, are treated with the mixture of acetone/tween/DMSO/water not containing the active material.
After 24 hours, the plants are contaminated by spraying the leaves with an aqueous suspension of Pyrenophora teres spores (12 000 spores per ml). The spores are collected from a 12-day-old culture. The contaminated barley plants are incubated for 48 hours at 20° C. and at 100% relative humidity, and then for 12 days at 20° C. at 70-80% relative humidity.
Grading (% of efficacy) is carried out 14 days after the contamination, in comparison with the control plants. plants.

Uromyces appendiculatus = assay: In vivo preventive test on Uromyces appendiculatus (bean rust); conditions: 500 ppm, preventive spray, bean plants, grading 11 days after contamination
Outline: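 'Saxa' bean plants at the 2-leaf stage were sprayed with compound and inoculated 24 h later with U. appendiculatus spores (150 000 spores per ml). Plants were incubated 24 h at 20 °C and 100% RH, then 10 days at 20 °C and 70–80% RH. Percent efficacy versus solvent-treated controls was graded 11 days post-inoculation.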

Septoria tritici = assay: In vivo preventive test on Septoria tritici (leaf spot on wheat); conditions: 500 ppm, preventive spray, wheat plants, grading 24 days after contamination
Outline: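 Wheat cv. Scipion sprayed preventively at 1-leaf stage; inoculated 24 h later with Septoria tritici spores (500 000 spores per ml). Incubation 72 h at 18 °C, 100% RH, then 21 days at 90% RH; % efficacy graded 24 days after contamination against solvent-treated controls.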

Botrytis cinerea = assay: In vivo preventive test on Botrytis cinerea (grey mould), gherkin plants
Outline: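 Gherkin plants sprayed at Z11 cotyledon stage with compound in acetone/tween/DMSO/water, inoculated 24 h later with B. cinerea spores (50 000 spores per ml) in nutrient solution. Kept at 17° C., 90% relative humidity; % efficacy graded 4 to 5 days post-inoculation versus solvent-treated controls.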

[1] = dose 100 ppm of active ingredient, comparison with known compounds
[2] = dose 100 ppm, comparison with known compounds, same conditions

CC1CC(C)(C)c2cccc(NC(=O)c3cccnc3C(F)F)c21 (centres unmarked) [Example 1] gave an Eff. % (Alternaria brassicae) of 92%, an Eff. % (Phakopsora pachyrhizi) of 99% and an Eff. % (Venturia inaequalis) of 100%. For the same compound, the “protection (in words)” value (Pyrenophora teres; [1]) was “total protection”, the Efficacy (Pyrenophora teres; [2]) was 100% and the Eff. % (Pyrenophora teres; dose 500 ppm, barley, spray, graded 14 days after contamination vs control plants) was 100%. For the same compound, the Eff. % (Uromyces appendiculatus) was 100%, the Eff. % (Septoria tritici) was 100% and the “protection (in words)” value (Botrytis cinerea; [1]) was “total protection”. For the same compound, the Efficacy (Botrytis cinerea; [2]) was 100% and the Eff. % (Botrytis cinerea; dose 500 ppm, gherkin, spray, graded 4 to 5 days after contamination vs control plants) was 100%.
